Values of other authors, collected in patent publication US20100055178A1, “ENTERIC-COATED CREATINE COMPOSITIONS AND METHODS OF USE THEREOF” (priority 2008, published 2010).

Experiments:
[1] = acidic solutions, pH 3-6
[2] = 5 grams, 4-6 times a day, for two or more days, oral

Structure (SMILES): CN(CC(=O)O)C(=N)N [creatine]
- rate of conversion of creatine to creatinine [1]: almost instantaneous
- total creatine concentration [2]: significant increase
